Measurements published in ChEMBL document CHEMBL3832021, “DailyMed|setid=e42c6a90-37f6-44f5-8112-126c2c4a4b2c | TESTIM- testosterone gel | A-S Medication Solutions LLC”.
“And” between values parts separate entries of the source, which are not always exact repeats. Identical values can stand only once.

Columns and labels:
[1] = system: Homo sapiens; assay: Mean steady-state pharmacokinetic parammeters for Testosterone evaluated on day 30 following multiple topical administration of Testosterone gel to adult male subjetcs with testosterone levels <= 300ng/dL.; assay type: ADME, organism-based; design: dose 100 mg, dose 50 mg, route topical; details: in vivo, topical_or_ocular, dosed compound id 32, dosed compound name TESTOSTERONE, gender male, regimen Once daily, tissue Serum; for Cavg: route topical
[2] = Evaluation of excretion and half-life for Testosterone following intramusculary administration of testosterone doses.; assay type: ADME, organism-based; details: human, in vivo, im; dosed compound id 32, dosed compound name TESTOSTERONE, gender male, tissue Plasma

C[C@]12CC[C@H]3[C@@H](CCC4=CC(=O)CC[C@@]43C)[C@@H]1CC[C@@H]2O [TESTOSTERONE]
Cavg ([1]; dose 50 mg): 365 ng/dL | Cavg ([1]; dose 100 mg): 612 ng/dL | Cmax [1]: 538 ng/dL and 897 ng/dL | half-life [2]: 10 to 100 min
